This is an account of results in patent US8148388B2, “2,4 (4,6) pyrimidine derivatives” (Janssen Pharmaceutica, N.V., priority 2004, dated 2012).

Some results are limits rather than exact numbers.

Holding throughout (format): biochemical
In one assay the target is Lyn (h) (Homo sapiens, UniProt P07948). The assay is described as follows: Lyn human kinase assay (glass-fiber filter). The note with it: test concentration of 10^−6M; for inhibition at 1 µM: read-out: C10 score (inhibition of Lyn human). How it is done: (§1) In the glass-fiber filter technology the activity of the kinase of interest is measured using an appropriate substrate that is incubated with the aforementioned kinase protein in the presence of (^33P) radiolabeled ATP. (^33P) Phosphorylation of the substrate is subsequently measured as radioactivity bound on a glass fiber-filter.
Lyn (h), sequence (P07948 whole entry): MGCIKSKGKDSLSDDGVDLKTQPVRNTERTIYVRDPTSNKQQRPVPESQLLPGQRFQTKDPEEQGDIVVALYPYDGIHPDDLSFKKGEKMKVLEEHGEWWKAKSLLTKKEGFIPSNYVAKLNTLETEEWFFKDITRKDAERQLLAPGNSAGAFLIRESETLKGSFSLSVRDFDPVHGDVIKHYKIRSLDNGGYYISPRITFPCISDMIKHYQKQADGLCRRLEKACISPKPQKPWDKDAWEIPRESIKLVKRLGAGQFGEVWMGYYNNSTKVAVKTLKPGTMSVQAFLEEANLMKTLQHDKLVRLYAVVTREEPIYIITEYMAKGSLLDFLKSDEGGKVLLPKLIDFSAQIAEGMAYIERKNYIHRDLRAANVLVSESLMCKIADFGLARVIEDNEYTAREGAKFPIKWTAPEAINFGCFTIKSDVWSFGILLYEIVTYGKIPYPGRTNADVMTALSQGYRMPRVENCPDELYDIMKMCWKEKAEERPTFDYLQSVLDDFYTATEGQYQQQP
(§2) All kinases are pre-diluted to a 10× working concentration prior to addition into the assay. The composition of the dilution buffer for each kinase is detailed below.
In a final reaction volume of […] (h) (5-10 mU) is incubated with 50 mM Tris pH 7.5, 0.1 mM EGTA, 0.1 mM Na3VO4, 0.1% O-mercaptoethanol, 0.1 mg/ml poly(Glu, Tyr) 4:1, 10 mM MgAcetate and [γ-^33P-ATP] (specific activity approx. 500 cpm/pmol, concentration as required). The reaction is initiated by the addition of the MgATP mix. After incubation for 40 minutes at room temperature, the reaction is stopped by the addition of 5 μl of a 3% phosphoric acid solution. 10 μl of the reaction is then spotted onto a Filtennat A and washed three times for 5 minutes in 75 mM phosphoric acid and once in methanol prior to drying and scintillation counting.

The target in a further assay is Yes (h) (Homo sapiens, UniProt P07947). The assay is described as follows: Yes human kinase assay (glass-fiber filter). The note with it: test concentration of 10^−6M; for inhibition at 1 µM: read-out: C11 score (inhibition of Yes human). The procedure:
as §1, §2
(§3) In a final reaction volume of 25 μl, Yes (h) (5-10 mU) is incubated with 8 mM MOPS pH 7.0, 0.2 mM EDTA, 0.1 mg/ml poly(Glu, Tyr) 4:1, 10 mM MgAcetate and [γ-^33P-ATP] (specific activity approx. 500 cpm/μmol, concentration as required). The reaction is initiated by the addition of the MgATP mix. After incubation for 40 minutes at room temperature, the reaction is stopped by the addition of 5 μl of a 3% phosphoric acid solution. 10 μl of the reaction is then spotted onto a Filtermat A and washed three times for 5 minutes in 75 mM phosphoric acid and once in methanol prior to drying and scintillation counting.

In the next assay the target is Fes (h) (Homo sapiens, UniProt P07332). The assay is described as follows: Fes human kinase assay (glass-fiber filter). The note with it: test concentration of 10^−6M; read-out: C4 score (inhibition of Fes human). How it is done:
as §1, §2
as §3, with “Fes” for “Yes”, “cpm/pmol,” for “cpm/μmol,”

Another assay deals with cSRC (h) (Homo sapiens, UniProt P12931). The assay is described as follows: cSRC human kinase assay (glass-fiber filter). The following applies: test concentration of 10^−6M; for inhibition at 1 µM: read-out: C3 score (inhibition of cSRC human). How it is done: (§4) The in vitro inhibition of a panel of kinases was assessed using either the glass-fiber filter technology as described by Davies, S. P. et al., Biochem J. […] In the glass-fiber filter technology the activity of the kinase of interest is measured using an appropriate substrate that is incubated with the aforementioned kinase protein in the presence of (^33P) radiolabeled ATP. (^33P) Phosphorylation of the substrate is subsequently measured as radioactivity bound on a glass fiber-filter. All kinases are pre-diluted to a 10× working concentration prior to addition into the assay. The composition of the dilution buffer for each kinase is detailed below. […] The reaction is initiated by the addition of the MgATP mix. […] 10 μl of the reaction is then spotted onto a P30 filtermat and washed three times for 5 minutes in 75 mM phosphoric acid and once in methanol prior to drying and scintillation counting.
cSRC (h), sequence (P12931 whole entry): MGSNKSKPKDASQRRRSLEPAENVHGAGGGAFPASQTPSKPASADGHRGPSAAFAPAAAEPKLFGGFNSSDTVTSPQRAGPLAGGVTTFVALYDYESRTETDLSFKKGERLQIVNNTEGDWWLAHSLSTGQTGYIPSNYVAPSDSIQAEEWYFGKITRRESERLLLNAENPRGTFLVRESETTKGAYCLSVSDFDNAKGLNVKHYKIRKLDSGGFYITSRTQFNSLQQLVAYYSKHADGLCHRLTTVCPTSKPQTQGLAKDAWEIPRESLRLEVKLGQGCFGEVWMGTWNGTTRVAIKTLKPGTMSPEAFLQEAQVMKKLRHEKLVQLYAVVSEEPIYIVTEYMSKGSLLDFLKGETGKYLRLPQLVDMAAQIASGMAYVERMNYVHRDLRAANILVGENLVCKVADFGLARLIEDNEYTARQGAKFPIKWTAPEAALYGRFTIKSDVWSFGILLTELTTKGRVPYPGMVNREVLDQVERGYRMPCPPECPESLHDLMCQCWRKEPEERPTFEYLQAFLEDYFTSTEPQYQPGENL

Another assay deals with Lck (h) (Homo sapiens, UniProt P06239). The assay is described as follows: Lck human kinase assay (glass-fiber filter). The following applies: test concentration of 10^−6M; for inhibition at 1 µM: read-out: C9 score (inhibition of Lck human). The procedure:
as §4, with “below. [table]” for “below.”

The next assay addresses GSK3B (h) (Homo sapiens, UniProt P49841). The assay is described as follows: GSK3β human kinase assay (glass-fiber filter). The following applies: test concentration of 10^−6M; for inhibition at 1 µM: read-out: C8 score (inhibition of GSK3β human). The procedure: (§5) The in vitro inhibition of a panel of kinases was assessed using either the glass-fiber filter technology as described by Davies, S. P. et al., Biochem J. (2000), 351; p. 95-105.
as §1, §2
as §3, with “GSK3B” for “Yes”, “20 μM […](p)EDEEE (phospho GS2 peptide),” for “0.1 mg/ml poly(Glu, Tyr) 4:1,”, “cpm/pmol,” for “cpm/μmol,”, “P30 filtermat” for “Filtermat A”, “50” for “75”

The next assay addresses Abl (h) (Homo sapiens, UniProt P00519). Briefly: Abl human kinase assay (glass-fiber filter). The note with it: test concentration of 10^−6M; for inhibition at 1 µM: read-out: C1 score (inhibition of Abl human). How it is done: as §1, §2
(specific activity approx. 500 cpm/pmol, concentration as required). The reaction is initiated by the addition of the MgATP mix. After incubation for 40 minutes at room temperature, the reaction is stopped by the addition of 5 μl of a 3% phosphoric acid solution. 10 μl of the reaction is then spotted onto a P30 filtermat and washed three times for 5 minutes in 75 mM phosphoric acid and once in methanol prior to drying and scintillation counting.

For the next assay, the target named is Fms (h) (Homo sapiens, UniProt P07333). Briefly: Fms human kinase assay (glass-fiber filter). The note with it: test concentration of 10^−6M; read-out: C7 score (inhibition of Fms human). How it is done:
as §5, §1, §2
In a final reaction volume of 25 μl, Fms (h) (5-10 mU) is incubated with 8 mM MOPS pH 7.0, 0.2 mM EDTA, 250 μM […], 10 mM MgAcetate and [γ-^33P-ATP] (specific activity approx. 500 cpm/pmol, concentration as required). The reaction is initiated by the addition of the MgATP mix. After incubation for 40 minutes at room temperature, the reaction is stopped by the addition of 5 μl of a 3% phosphoric acid solution. 10 μl of the reaction is then spotted onto a P30 filtermat and washed three times for 5 minutes in 75 mM phosphoric acid and once in methanol prior to drying and scintillation counting.

The next assay has as its target Flt3 (h) (Homo sapiens, UniProt P36888). Briefly: Flt3 human kinase assay (glass-fiber filter). The note with it: test concentration of 10^−6M; for inhibition at 1 µM: read-out: C6 score (inhibition of Flt3 human). How it is done:
as §5, §1, §2
In a final reaction volume of 25 μl, Flt3 (h) (5-10 mU) is incubated with 8 mM MOPS pH 7.0, 0.2 mM EDTA, 50 μM […], 10 mM MgAcetate and [γ-^33P-ATP] (specific activity approx. 500 cpm/pmol, concentration as required). The reaction is initiated by the addition of the MgATP mix. After incubation for 40 minutes at room temperature, the reaction is stopped by the addition of 5 μl of a 3% phosphoric acid solution. 10 μl of the reaction is then spotted onto a P30 filtermat and washed three times for 5 minutes in 75 mM phosphoric acid and once in methanol prior to drying and scintillation counting.

The target of the next assay is EGFR (h) (Homo sapiens, UniProt P00533). Briefly: EGFR human kinase assay (glass-fiber filter). The following applies: test concentration of 10^−6M. How it is done: as §1, §2
EGFR (h), sequence (P00533 25-1210): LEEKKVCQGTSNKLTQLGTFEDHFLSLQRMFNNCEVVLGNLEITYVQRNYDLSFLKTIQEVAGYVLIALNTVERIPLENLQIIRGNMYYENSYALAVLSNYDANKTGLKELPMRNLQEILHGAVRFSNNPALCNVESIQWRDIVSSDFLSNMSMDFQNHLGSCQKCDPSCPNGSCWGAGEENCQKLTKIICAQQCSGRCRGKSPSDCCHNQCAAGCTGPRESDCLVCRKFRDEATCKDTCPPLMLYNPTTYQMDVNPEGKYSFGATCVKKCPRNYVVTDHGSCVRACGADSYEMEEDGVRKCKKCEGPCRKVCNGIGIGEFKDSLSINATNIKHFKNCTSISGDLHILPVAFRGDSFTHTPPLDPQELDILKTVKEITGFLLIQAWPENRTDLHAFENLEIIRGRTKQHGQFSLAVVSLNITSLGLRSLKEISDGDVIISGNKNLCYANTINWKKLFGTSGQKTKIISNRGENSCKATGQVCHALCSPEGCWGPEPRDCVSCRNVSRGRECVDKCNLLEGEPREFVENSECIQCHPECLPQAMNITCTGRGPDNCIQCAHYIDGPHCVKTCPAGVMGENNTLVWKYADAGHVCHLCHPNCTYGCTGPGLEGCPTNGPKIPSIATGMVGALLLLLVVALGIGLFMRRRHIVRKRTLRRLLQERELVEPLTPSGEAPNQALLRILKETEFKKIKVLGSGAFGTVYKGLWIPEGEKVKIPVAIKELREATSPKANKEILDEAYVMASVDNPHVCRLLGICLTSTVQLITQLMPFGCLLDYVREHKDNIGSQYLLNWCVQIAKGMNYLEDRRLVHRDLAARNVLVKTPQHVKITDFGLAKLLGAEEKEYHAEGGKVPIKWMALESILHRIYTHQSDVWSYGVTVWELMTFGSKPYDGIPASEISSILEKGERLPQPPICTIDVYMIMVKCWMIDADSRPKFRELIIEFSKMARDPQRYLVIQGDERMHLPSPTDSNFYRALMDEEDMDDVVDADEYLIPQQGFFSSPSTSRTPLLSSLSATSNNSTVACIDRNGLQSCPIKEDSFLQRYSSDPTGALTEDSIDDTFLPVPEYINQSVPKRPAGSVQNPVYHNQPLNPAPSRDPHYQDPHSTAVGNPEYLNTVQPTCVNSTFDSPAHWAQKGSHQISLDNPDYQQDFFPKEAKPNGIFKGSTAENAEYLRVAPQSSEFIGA
as §3, with “EGFR” for “Yes”, “EDTA, 10 mM MnCl2,” for “EDTA,”, “cpm/pmol,” for “cpm/μmol,”

Flt3 (h), sequence (P36888 27-993): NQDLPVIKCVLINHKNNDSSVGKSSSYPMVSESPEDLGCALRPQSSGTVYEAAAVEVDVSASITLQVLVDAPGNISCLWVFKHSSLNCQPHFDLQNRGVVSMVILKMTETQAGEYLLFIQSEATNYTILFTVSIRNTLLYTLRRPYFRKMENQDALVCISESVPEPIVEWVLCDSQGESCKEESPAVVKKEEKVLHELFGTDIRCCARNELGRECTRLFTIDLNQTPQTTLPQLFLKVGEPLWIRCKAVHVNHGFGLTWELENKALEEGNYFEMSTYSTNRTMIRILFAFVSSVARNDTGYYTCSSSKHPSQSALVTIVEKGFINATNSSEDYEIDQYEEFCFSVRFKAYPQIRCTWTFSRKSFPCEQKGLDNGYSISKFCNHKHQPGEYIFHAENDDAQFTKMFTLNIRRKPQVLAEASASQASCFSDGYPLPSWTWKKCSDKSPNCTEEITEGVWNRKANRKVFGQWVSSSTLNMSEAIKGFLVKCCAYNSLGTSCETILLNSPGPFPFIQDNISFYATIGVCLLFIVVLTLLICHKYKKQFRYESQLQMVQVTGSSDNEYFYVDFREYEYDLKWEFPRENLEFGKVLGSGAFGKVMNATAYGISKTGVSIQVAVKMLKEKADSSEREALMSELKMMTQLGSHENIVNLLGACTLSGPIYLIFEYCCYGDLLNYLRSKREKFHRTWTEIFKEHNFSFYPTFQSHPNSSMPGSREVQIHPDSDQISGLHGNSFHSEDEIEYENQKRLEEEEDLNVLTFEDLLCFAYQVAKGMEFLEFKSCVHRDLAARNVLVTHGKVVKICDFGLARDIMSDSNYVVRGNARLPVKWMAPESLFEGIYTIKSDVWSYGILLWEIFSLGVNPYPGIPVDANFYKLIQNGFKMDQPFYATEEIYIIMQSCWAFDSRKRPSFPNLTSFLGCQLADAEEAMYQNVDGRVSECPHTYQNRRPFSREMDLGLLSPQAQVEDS
GSK3B (h), sequence (P49841 whole entry): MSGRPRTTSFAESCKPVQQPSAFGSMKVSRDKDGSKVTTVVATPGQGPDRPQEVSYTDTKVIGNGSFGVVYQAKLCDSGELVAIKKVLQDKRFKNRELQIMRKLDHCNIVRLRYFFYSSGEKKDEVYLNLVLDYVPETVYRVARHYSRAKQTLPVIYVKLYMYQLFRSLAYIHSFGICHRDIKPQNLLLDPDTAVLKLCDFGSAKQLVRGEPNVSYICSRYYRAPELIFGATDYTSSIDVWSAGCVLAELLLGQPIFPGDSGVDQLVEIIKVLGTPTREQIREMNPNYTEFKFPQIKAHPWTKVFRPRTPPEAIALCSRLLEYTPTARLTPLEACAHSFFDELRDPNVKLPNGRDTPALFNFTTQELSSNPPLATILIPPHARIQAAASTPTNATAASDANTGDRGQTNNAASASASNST
Lck (h), sequence (P06239 whole entry): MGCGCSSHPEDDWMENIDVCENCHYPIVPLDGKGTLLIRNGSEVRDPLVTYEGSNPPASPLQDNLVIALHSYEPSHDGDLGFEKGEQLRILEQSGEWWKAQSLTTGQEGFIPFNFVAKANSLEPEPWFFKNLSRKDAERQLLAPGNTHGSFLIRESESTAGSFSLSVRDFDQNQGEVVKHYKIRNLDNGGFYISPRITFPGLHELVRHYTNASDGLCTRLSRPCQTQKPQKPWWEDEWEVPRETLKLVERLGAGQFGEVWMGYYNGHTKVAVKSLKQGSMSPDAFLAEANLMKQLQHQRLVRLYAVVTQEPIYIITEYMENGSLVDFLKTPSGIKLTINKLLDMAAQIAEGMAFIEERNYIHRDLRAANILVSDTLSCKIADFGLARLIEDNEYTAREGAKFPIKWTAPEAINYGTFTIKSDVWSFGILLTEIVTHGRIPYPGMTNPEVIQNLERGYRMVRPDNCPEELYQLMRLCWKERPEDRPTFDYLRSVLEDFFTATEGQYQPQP
Yes (h), sequence (P07947 whole entry): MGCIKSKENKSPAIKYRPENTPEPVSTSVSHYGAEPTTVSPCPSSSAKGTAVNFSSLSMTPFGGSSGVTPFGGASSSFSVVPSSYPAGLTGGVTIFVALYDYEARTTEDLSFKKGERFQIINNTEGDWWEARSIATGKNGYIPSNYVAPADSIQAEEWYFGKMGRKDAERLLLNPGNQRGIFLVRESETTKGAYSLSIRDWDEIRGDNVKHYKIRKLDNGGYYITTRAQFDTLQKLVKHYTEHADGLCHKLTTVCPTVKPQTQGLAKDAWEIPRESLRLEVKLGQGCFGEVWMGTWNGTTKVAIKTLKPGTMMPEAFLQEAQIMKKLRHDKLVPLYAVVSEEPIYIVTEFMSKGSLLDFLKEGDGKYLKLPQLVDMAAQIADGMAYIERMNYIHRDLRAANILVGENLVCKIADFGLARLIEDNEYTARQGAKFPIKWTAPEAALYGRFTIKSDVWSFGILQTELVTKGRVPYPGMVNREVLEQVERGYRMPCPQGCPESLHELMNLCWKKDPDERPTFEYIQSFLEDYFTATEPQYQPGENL

A word on the inhibition: it is the percentage by which the read-out fell short of the control. As to `N#Cc1cnc2nc1Nc1cccc(c1)OCCCCOc1cccc(c1)N2` [Compound 2, 14,19-dioxa-2,4,8,26-tetraazatetracyclo[18.3.1.1˜3,7˜.1˜9,13˜]hexacosa-1(24),3,5,7(26),9,11,13(25),20,22-nonaene-6-carbonitrile], the inhibition at 1 µM at Lyn (h) was 10 to 30%; on Yes (h), 30 to 60%; at Fes (h) it was 10 to 30%; on cSRC (h), 30 to 60%; on Lck (h), 30 to 60%; on GSK3B (h), 60 to 80%. Also, the inhibition at 1 µM on Abl (h) is 10 to 30%; at Fms (h), 30 to 60%; on Flt3 (h), over 80%.

In the case of `O=C1NCCCCOc2cccc(c2)Nc2ccnc(n2)Nc2cccc1c2` [Compound 19, 14-oxa-2,4,8,19,27-pentaazatetracyclo[19.3.1.1~3,7~.1~9,13~]heptacosa-1(25),3,5,7(27),9,11,13(26),21,23-nonaen-20-one], the inhibition at 1 µM at Lyn (h) fell in the range of 10 to 30%; at Yes (h), 30 to 60%; at cSRC (h), 10 to 30%; on EGFR (h) (read-out: C4 score (inhibition of EGFR human)) it was 10 to 30%; on Lck (h), 30 to 60%; at GSK3B (h) it was 10 to 30%. In addition, the inhibition at 1 µM on Abl (h) fell in the range of 10 to 30%; at Fms (h), 10 to 30%; at Flt3 (h) it was 30 to 60%.

As for `COc1ccc2cc1OCCNC(=O)[C@@H]1CCCN1Cc1cc(F)c(Cl)cc1Nc1nc(ncc1C#N)N2` [Compound 31, 21,17-metheno-15,11-nitrilo-16H-pyrrolo[2,1-r][13,1,5,7,16,19]benzoxapentaazacyclodocosine-12-carbonitrile, 8-chloro-7-fluoro-1,2,3,5,10,23,24,25,26,26a-decahydro-20-methoxy-26-oxo-, (26aS)-], at Lyn (h), the “C10 score (inhibition of Lyn human)” value is reported as 4 (Score 4=>80% inhibition). The “C11 score (inhibition of Yes human)” value at Yes (h) is listed as 4 (Score 4=>80% inhibition). Moreover, the “C3 score (inhibition of cSRC human)” value on cSRC (h) is 2 (Score 2=30-60% inhibition). Further, at EGFR (h), the “C4 score (inhibition of EGFR human)” value is 2 (Score 2=30-60% inhibition). For the same compound, the “C9 score (inhibition of Lck human)” value at Lck (h) was 3 (Score 3=60-80% inhibition). The “C8 score (inhibition of GSK3β human)” value on GSK3B (h) is 1 (Score 1=10-30% inhibition). The “C1 score (inhibition of Abl human)” value at Abl (h) is reported as 2 (Score 2=30-60% inhibition). Further, the “C6 score (inhibition of Flt3 human)” value on Flt3 (h) was 2 (Score 2=30-60% inhibition).

Turning to `COc1cc2cc(c1)OCCCCCCOc1ccc(Br)cc1Nc1cc(ncn1)N2` [Compound 40, 1H,7H-6,2: 8,12-dimetheno-13,20,1,3,5,7-benzodioxatetraazacyclodocosine, 23-bromo-14,15,16,17,18,19-hexahydro-10-methoxy-], at Yes (h), the “C11 score (inhibition of Yes human)” value is on record as 4 (Score 4=>80% inhibition). The “C4 score (inhibition of EGFR human)” value on EGFR (h) is 4 (Score 4=>80% inhibition). Further, the “C9 score (inhibition of Lck human)” value on Lck (h) is given as 1 (Score 1=10-30% inhibition). Moreover, on GSK3B (h), the “C8 score (inhibition of GSK3β human)” value is on record as 1 (Score 1=10-30% inhibition). Moreover, the “C6 score (inhibition of Flt3 human)” value at Flt3 (h) is given as 1 (Score 1=10-30% inhibition).
